# Laboratory results from PMC11321617 (Advanced Science, 2024).
# Bridge positions count the residues as written; N and C are the ends. Square brackets hold non-standard residues; d marks the D form. Peptide text beside a SMILES is read from it. * marks the point of attachment. X1 = CC[C@H](C)CCCCC(=O)*; Dab = NCC[C@H](N)C(=O)O
# Experiments:
# [1] = test system: Pseudomonas aeruginosa ATCC 27853; test: microbe, parasite or virus in culture; type: cell-based; details: ATCC27853, broth dilution, TSB, 5 × 10^5 CFU mL^−1, 18 h, 37 °C
# Description: (§1) The MICs of the peptides were determined using the microplate broth dilution method.^[ [32] ^] The bacteria in the mid‐log phase were diluted to 5 × 10^5 colony forming units (CFU) mL^−1 in TSB. 100 µL of serially diluted peptide solution and 100 µL of diluted bacteria were put to a sterile 96‐well plate.
# [2] = test system: Staphylococcus aureus ATCC25923; test: microbe, parasite or virus in culture; type: cell-based; details: broth dilution, TSB, 5 × 10^5 CFU mL^−1, 18 h, 37 °C
# Description: as §1
# [3] = test system: Methicillin‐Resistant Staphylococcus aureus USA300; test: microbe, parasite or virus in culture; type: cell-based; details: broth dilution, TSB, 5 × 10^5 CFU mL^−1, 18 h, 37 °C, MRSA USA300
# Description: as §1
# [4] = test system: Staphylococcus epidermidis YYF‐771; test: microbe, parasite or virus in culture; type: cell-based; details: broth dilution, TSB, 5 × 10^5 CFU mL^−1, 18 h, 37 °C
# Description: as §1
# Klebsiella pneumoniae K7 = test: microbe, parasite or virus in culture; type: cell-based; details: broth dilution, TSB, 5 × 10^5 CFU mL^−1, 18 h, 37 °C
# Description: as §1
# [5] = test system: Salmonella pullorum ATCC19945; test: microbe, parasite or virus in culture; type: cell-based; details: Salmonella enterica, broth dilution, TSB, 5 × 10^5 CFU mL^−1, 18 h, 37 °C
# Description: as §1
# [6] = test system: Enterococcus faecalis 4P‐SA; test: microbe, parasite or virus in culture; type: cell-based; details: broth dilution, TSB, 5 × 10^5 CFU mL^−1, 18 h, 37 °C
# Description: as §1
# [7] = test system: Staphylococcus aureus ATCC29213; test: microbe, parasite or virus in culture; type: cell-based; details: broth dilution, TSB, 5 × 10^5 CFU mL^−1, 18 h, 37 °C
# Description: as §1
# [8] = test system: Enterococcus faecalis ATCC51299; test: microbe, parasite or virus in culture; type: cell-based; details: ATCC51299, 18 h
# Description: as §1
# [9] = test system: Staphylococcus aureus ATCC25904; test: microbe, parasite or virus in culture; type: cell-based; details: broth dilution, TSB, 5 × 10^5 CFU mL^−1, 18 h, 37 °C
# Description: as §1
# [10] = test system: Listeria monocytogenes 10403S; test: microbe, parasite or virus in culture; details: 18 h
# Description: as §1
# Bacillus subtilis BL‐4 = test: microbe, parasite or virus in culture; details: 18 h
# Description: as §1
# [11] = test system: Listeria monocytogenes ATCC19115; test: microbe, parasite or virus in culture; details: ATCC19115, 18 h
# Description: as §1
# [12] = test system: Listeria monocytogenes EGD; test: microbe, parasite or virus in culture; details: 18 h
# Description: as §1
# [13] = test system: Salmonella typhimurium SL1344; test: MIC assay (microplate broth dilution); type: cell-based; details: Salmonella enterica, 18 h
# Description: as §1
# E. coli O157:H7 = test: Time‐kill kinetics; type: cell-based, Escherichia coli; details: 4 × MIC, 1 × 10^5 CFU mL^−1 E. coli O157:H7, 37 °C; n = 3
# Description: During the logarithmic growth phase, 1 × 10^5 CFU mL^−1 of E. coli O157:H7 was diluted in 1 mL, the peptides were incubated with the bacterial solution for several intervals.^[ [42] ^] The solution was diluted to a suitable ratio and evenly distributed across the TSB agar plates. Before being counted, colonies were cultured for one night at 37 °C.
# [14] = test system: persisters induced from E. coli; test: Bactericidal activity against persisters; type: cell-based, Escherichia coli; details: colistin at 4 × MIC (25 µmol L^−1), 24 h; rifampicin‐induced E. coli persisters; n = 3
# Description: Previously recognized and widely used procedures for developing persisters. The bacterial cells, with a turbidity of 0.8 at 600 nm, were obtained in the mid‐log phase. The culture was cultured at 37 °C for 30 min after 100 µg mL^−1 rifampicin (Macklin, Shanghai, China) was added. The rifampicin‐treated culture was centrifuged, and the pellet was resuspended in TSB containing ampicillin (final concentration: 300 µg mL^−1; Macklin, Shanghai, China) to remove nonpersister cells. […] Then cultured for 24 h, spotted on TSB agar, and incubated overnight at 37 °C.
# Escherichia coli O157:H7 = type: cell-based; details: broth dilution, TSB, 5 × 10^5 CFU mL^−1, 18 h, 37 °C
# Description: as §1
# [15] = test system: diabetic wound infections; details: cecropin ref 27b, SCIBIOIII ref 28, QHREDGS ref 29, LL‐37 ref 30; cited from earlier work
# Source text: A significant concern in diabetic wound infections is the complexity of mixed bacterial infections, contributing to prolonged wound healing times, extended periods of inflammation, and a heightened risk of ulcer recurrence.^[ [26] ^] Naturally, an ointment that eliminates these microorganisms holds enormous promise for treating diabetes patients who have recurring infections and preventing the development of antibiotic resistance and transmission. According to earlier research, this CaAGE hydrogel basis was ideal for the AMPs.^[ [27] ^] in terms of the stability, release profile, and antibacte ...
# [16] = test system: drug‐resistant Gram‐positive bacterial infections; details: cited from earlier work
# Source text: Conventional screening methods have been unsuccessful in discovering new antibiotics in recent years.^[ [16] ^] Traditional screening sources seem overexploited and tend to produce compounds that are already known. However, uncultured bacteria represent a significant and untapped reservoir of novel natural product frameworks.^[ [17] ^] […] In the context of this ...
compound,measurement,setting,value
"CC1(C)S[C@@H]2[C@H](NC(=O)[C@H](N)c3ccccc3)C(=O)N2[C@H]1C(=O)O [ampicillin, Ampicillin]",MIC,[1],> 71.6 µM
same,MIC,[2],1.57 µM
same,MIC,[3],71.6 µM
same,MIC,[4],1.57 µM
same,MIC,Klebsiella pneumoniae K7,> 71.6 µM
same,MIC,[5],35.8 µM
same,MIC,[6],> 71.6 µM
same,MIC,[7],1.57 µM
same,MIC,[8],12.5 µM
same,MIC,[9],> 71.6 µM
same,MIC,[10],25 µM
same,MIC,Bacillus subtilis BL‐4,1.57 µM
same,MIC,[11],6.25 µM
same,MIC,[12],4.5 µM
same,MIC,[13],12.5 µM
"CC[C@H](C)CCCCC(=O)N[C@@H](CCN)C(=O)N[C@H](C(=O)N[C@@H](CCN)C(=O)N[C@H]1CCNC(=O)[C@H]([C@@H](C)O)NC(=O)[C@H](CCN)NC(=O)[C@H](CCN)NC(=O)[C@H](CC(C)C)NC(=O)[C@@H](CC(C)C)NC(=O)[C@H](CCN)NC1=O)[C@@H](C)O [colistin, Colistin] (X1-[Dab]T[Dab][Dab][Dab][dL]L[Dab][Dab]T; lactam 4-C (inferred); N-terminus assumed)",time to eradicate all E. coli cells,E. coli O157:H7,2 h
same,effect on persisters,[14],had little effect on the survival
same,MIC,Escherichia coli O157:H7,3.13 µM
LL‐37,bacterial count reduction / wound healing in diabetic wound infections,[15],none of these peptides demonstrated the capacity to significantly reduce bacterial counts by ≈3‐log or expedite wound healing within a 10‐day timeframe
QHREDGS [AMP researched for diabetic wound infections],bacterial count reduction / wound healing in diabetic wound infections,[15],none of these peptides demonstrated the capacity to significantly reduce bacterial counts by ≈3‐log or expedite wound healing within a 10‐day timeframe
cecropin,bacterial count reduction / wound healing in diabetic wound infections,[15],none of these peptides demonstrated the capacity to significantly reduce bacterial counts by ≈3‐log or expedite wound healing within a 10‐day timeframe
clovibactin,efficacy,[16],effectively controlling drug‐resistant Gram‐positive bacterial infections
